Values of other authors, collected in patent US6750064B2, “Methods of screening for possible solid forms” (S.S.C.I. Inc., priority 2000, dated 2004).

Details: two hours after the drug was administered

Row | concentration of novobiocin in dog plasma | SMILES
1 | 29300 ng/mL | CO[C@@H]1[C@@H](OC(N)=O)[C@@H](O)[C@H](Oc2ccc3c(O)c(NC(=O)c4ccc(O)c(CC=C(C)C)c4)c(=O)oc3c2C)OC1(C)C [novobiocin amorphous form, novobiocin]
2 | no drug detectable | CO[C@@H]1[C@@H](OC(N)=O)[C@@H](O)[C@H](Oc2ccc3c(O)c(NC(=O)c4ccc(O)c(CC=C(C)C)c4)c(=O)oc3c2C)OC1(C)C [crystalline novobiocin, novobiocin]
